# Target: T1, Alpha-1,4-glucan:maltose-1-phosphate maltosyltransferase (Mycobacterium tuberculosis (strain ATCC 25618 / H37Rv), UniProt P9WQ17)
# T1 sequence (P9WQ17 whole entry): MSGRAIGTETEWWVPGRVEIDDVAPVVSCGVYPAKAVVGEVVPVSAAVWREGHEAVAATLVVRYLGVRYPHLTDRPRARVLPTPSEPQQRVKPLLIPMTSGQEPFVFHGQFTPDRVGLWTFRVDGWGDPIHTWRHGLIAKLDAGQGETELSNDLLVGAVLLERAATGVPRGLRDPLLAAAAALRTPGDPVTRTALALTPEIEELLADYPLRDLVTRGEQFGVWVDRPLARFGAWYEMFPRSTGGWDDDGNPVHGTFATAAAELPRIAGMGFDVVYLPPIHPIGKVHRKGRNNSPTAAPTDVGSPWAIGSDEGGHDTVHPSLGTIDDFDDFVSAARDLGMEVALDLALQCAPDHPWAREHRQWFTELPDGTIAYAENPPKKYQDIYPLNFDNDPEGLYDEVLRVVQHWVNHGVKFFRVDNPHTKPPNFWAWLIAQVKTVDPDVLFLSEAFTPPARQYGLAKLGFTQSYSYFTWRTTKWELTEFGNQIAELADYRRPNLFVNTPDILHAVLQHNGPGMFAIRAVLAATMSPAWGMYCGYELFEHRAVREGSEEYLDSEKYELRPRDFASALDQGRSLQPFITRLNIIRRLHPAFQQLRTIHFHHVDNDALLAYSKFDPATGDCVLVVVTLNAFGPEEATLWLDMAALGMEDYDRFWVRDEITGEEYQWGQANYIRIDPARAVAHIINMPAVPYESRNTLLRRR
# Experiment: Inhibition of recombinant Mycobacterium tuberculosis H37Rv GlgE expressed in Escherichia coli BL21 (DE3) rosetta cells using maltose-1-phosphate as substrate measured every 5 secs for 30 mins by purine nucleoside phosphorylase-coupled assay
smiles,measurement,value
O=P(O)(O)C[C@H]1O[C@H](CO)[C@@H](O[C@H]2O[C@H](CO)[C@@H](O)[C@H](O)[C@H]2O)[C@H](O)[C@H]1O,IC50,230 µM

# Reference: ChEMBL document CHEMBL3112529, “Synthesis of a C-phosphonate mimic of maltose-1-phosphate and inhibition studies on Mycobacterium tuberculosis GlgE” (Bioorg Med Chem, 2014)
